Measured values reported in patent publication US20050049299A1, “Selective inhibitors of stat-3 activation and uses thereof” (priority 2003, published 2005).

What was measured:
Assay type in all cases: cell-based, human
[1] = test system: U266 cells; assay: IL-6-induced proliferation of U266 cells (thymidine incorporation, MTT); details: curcumin 10 μM, 48 h, serum-free; thymidine incorporation and MTT
Experimental: (§1) FIGS. 7A-B show& that IL-6 induces proliferation of human multiple myeloma cells and curcumin inhibits it. […] Cell proliferation assays were performed as described below. Results are shown as mean (±s.d.) of percent [^3H] thymidine incorporation or percent proliferation by MTT of triplicate cultures compared to the untreated control.
(§2) The antiproliferative effects of curcumin against different multiple myeloma cell lines were determined by the MTT dye uptake method as described earlier (28). Briefly, the cells (5000/well) were incubated in triplicate in a 96-well plate in the presence or absence of indicated test samples in a final volume of 0.1 ml for 24 h at 37° C. […] The OD at 570 nm was measured using a 96-well multiscanner autoreader (Dynatech MR 5000), with the extraction buffer serving as blank. Percent cell viability cell viability was calculated using the following formula: Percent cell viability=(OD of the experiment samples/OD of the control)×100.
(§3) The antiproliferative effects of curcumin were also monitored by the thymidine incorporation method. […] Six hours before the completion of experiment, cells were pulse treated with 0.5 μCi [^3H]thymidine, and the uptake of [^3H]thymidine was monitored using a Matrix-9600 β-counter (Packard Instruments, Downers Grove, Ill.). […]
(§4) Whether curcumin suppresses the proliferative effects of IL-6 was determined.

[2] = test system: STAT3 phosphorylation; assay: IL-6-induced STAT3 phosphorylation in JMAR cells (Western blot)
Experimental: JMAR cells (2×10^6 cells) were treated with IL-6 (10 ng/ml) for the indicated time and whole cell extracts were prepared. These extracts (30 μg) were resolved on 7.5% SDS-PAGE, electrotransferred to a nitrocellulose membrane and probed for p-STAT3 (upper panel) and stripped and re-probed for STAT3 (lower panel). […] JMAR cells were pretreated with curcumin (50 μM) for indicated durations and stimulated with IL-6 (10 ng/ml) for 10 mins and whole cell extract prepared and probed as mentioned earlier.
JMAR cells were treated with IL-6 for different durations and the levels of p-STAT3 and STAT3 were examined. Treatment with IL-6 as early as 5 mins induced STAT3 phosphorylation in JMAR cells (FIG. 14A, upper panel). However, STAT3 levels were unaffected (FIG. 14A, lower panel).
Further, since IL-6 induced STAT3 phosphorylation in JMAR cells, the ability of curcumin to inhibit this STAT3 phosphorylation was also examined. JMAR cells were pretreated with curcumin for different durations and stimulated with IL-6 for 10 minutes. Both the status of p-STAT3 and STAT3 were determined in the whole cell extracts of these cells. Treatment with curcumin for as early as 30 minutes led to decline in the phosphorylation of STAT3 which declined further with increased exposure to curcumin. Exposure to curcumin for 2 hours inhibited STAT3 phosphorylation in JMAR cells (FIG. 14B, upper panel). The STAT3 levels were unaffected by this treatment (FIG. 14B, lower panel).

[3] = test system: STAT3 phosphorylation; assay: IL-6-inducible STAT3 phosphorylation in RPMI 8226 cells (Western blot)
Experimental: FIGS. 3A-C show& that IL-6 induces STAT3 phosphorylation in human multiple myeloma RPMI 8226 cells and curcumin inhibits it. […] U266, RPMI 8226, MM.1S, MM.1R and OCl cells (2×10^6) were lysed, and 30 μg of whole-cell extracts were resolved on 7.5% SDS-PAGE, electrotransferred to a nitrocellulose membrane, and probed for phosphorylated-STAT3 (upper panel) and STAT3 (lower panel). […] Thirty micrograms of whole cell extracts were resolved on 7.5% SDS-PAGE, electrotransferred to a nitrocellulose membrane, and probed for the phosphorylated-STAT3 (upper panel) and stripped and reprobed for STAT3 (middle panel) and β-actin (lower panel).
(§5) For detection of STAT proteins, whole-cell extracts were prepared by lysing the curcumin-treated cells in lysis buffer (20 mM Tris, pH 7.4, 250 mM NaCl, 2 mM EDTA, pH 8.0, 0.1% Triton-X100, 0.01 mg/ml aprotinin, 0.005 mg/ml leupeptin, 0.4 mM PMSF, and 4 mM NaVO4). Lysates were then spun at 14000 rpm for 10 min to remove insoluble material, and resolved on a 7.5% gel. After electrophoresis, the proteins were electrotransferred to a nitrocellulose membrane, blocked with 5% nonfat milk, and probed with anti-STAT antibodies (1:1000) overnight at 4° C. The blot was washed, exposed to HRP-conjugated secondary antibodies for 1 h, and finally examined by chemiluminescence (ECL, Amersham Pharmacia Biotech. Arlington Heights, Ill.).
Since IL-6 is a growth factor for multiple myeloma and induces STAT3 phosphorylation (5, 6, 15), whether curcumin could inhibit IL-6-induced STAT3 phosphorylation was examined. […] IL-6 induced phosphorylation of STAT3 as early as 5 min and began to decline at 60 minutes (FIG. 3B). RPMI 8226 cells were then incubated with curcumin for different times and examined for IL-6-inducible STAT3 phosphorylation.
Exposure of cells to curcumin for 4 hours was sufficient to completely suppress IL-6-induced STAT3 phosphorylation. Curcumin alone had no effect on STAT3 phosphorylation in these cells (data not shown).

[4] = test system: MM.1R cells; assay: IL-6-induced proliferation of MM.1R cells; details: curcumin 10 μM, 48 h, serum-free
Experimental: as §1, §2, §3, §4

[5] = test system: STAT1 phosphorylation; assay: IFN-α-inducible STAT1 phosphorylation in U266 cells (Western blot); details: 50 μM curcumin, IFN-α 10 ng/ml
Experimental: U266 cells (2×10^6) were treated with the indicated concentrations of curcumin for 1 h, or treated with 50 μM curcumin for the indicated durations and levels of phosphorylated-STAT3 (upper panel) and STAT3 (lower panel) were examined in whole cell extracts by Western Blotting. […] U266 cells (2×10^6) were treated with 50 μM curcumin for indicated durations, and examined for phosphorylated and nonphosphorylated-STAT3, and STAT5. […] U266 cells (2×10^6) were preincubated with curcumin (50 μM) for indicated durations before treatment with IFN-α (10 ng/ml) for additional 30 min and then examined for phosphorylated and nonphosphorylated-STAT1.
as §5, with “Ill.). […]” for “Ill.).”

[6] = 50 μM curcumin, IL-6 10 ng/ml 10 min

## COc1cc(/C=C/C(=O)CC(=O)/C=C/c2ccc(O)c(OC)c2)ccc1O [curcumin, diferuloylmethane]
[1]
  IL-6-induced proliferation of U266 cells: completely inhibited
[2]; [6]
  earliest treatment time leading to decline of IL-6-induced STAT3 phosphorylation: 30 min
  exposure that inhibited IL-6-induced STAT3 phosphorylation: 2 h
[2]; curcumin pretreatment plus IL-6
  STAT3 levels: unaffected
[3]; [6]
  exposure sufficient to completely suppress IL-6-induced STAT3 phosphorylation: 4 h
[3]; without IL-6 (data not shown)
  effect of curcumin alone on STAT3 phosphorylation: no effect
[4]
  IL-6-induced cell proliferation in MM.1R cells: inhibited IL-6-induced cell proliferation
[5]
  IFN-α-induced STAT1 phosphorylation: suppressed the phosphorylation in a time-dependent manner
